Laboratory results taken from publication PMC10060639, “Prediction and bioactivity of small-molecule antimicrobial peptides from Protaetia brevitarsis Lewis larvae” (Frontiers in Microbiology, 2023).
Ends that are not written are not given here.

How the values were obtained:
B. thuringiensis = test: agar punch method, inhibition circle; type: cell-based, Bacillus thuringiensis; conditions: 6 mm hole, 55 μL of 1 mg/mL, NA, 37°C (Fig. S3C: 30°C), 16–18 h, mean ± SD, three replicates, + control given per plate group
Method: (§1) Staphylococcus aureus CMCC(B) 26003, B. thuringiensis, E. coli, and P. aeruginosa CMCC(B)10104 were cultured in NA medium and C. albicans CMCC(F) 98001 was cultured in SDA medium. They were incubated in a constant-temperature (bacteria: 37°C; fungi: 28°C) incubator for 16–20 h. Thereafter, single colonies were picked and incubated in 50 mL MHB at 160 rpm/min at the optimal growth temperature (bacteria: 37°C; fungi: 28°C). Microbial suspensions of 1 × 10^6 CFU/mL were then prepared ([Chen et al., 2016]).
(§2) 100 μL of 1 × 10^6 CFU/mL microbial suspension (E. coli, P. aeruginosa CMCC(B)10104, B. thuringiensis, S. aureus CMCC(B) 26003, or C. albicans CMCC(F) 98001) was evenly applied to dishes containing 20 mL NA (bacteria) or SDA (fungi). After the microbial solution solidified, six holes per dish were punched with a sterile pipette tip of 6 mm in diameter, with each hole spaced >20 mm apart and > 10 mm apart from the edge of the dish. […] Next, 55 μL of 1 mg/mL control/treatment was added to each hole and incubated in a constant-temperature (bacteria: 37°C; fungi: 28°C) incubator for 16–18 h ([Chen et al., 2016]; [Gong et al., 2022]), with three replicates for each treatment group. The diameter of the inhibition circle was measured using ImageJ software (National Institutes of Health, United States) in order to preliminarily determine whether the candidate peptides had inhibitory activity.

[1] = system: C. albicans CMCC(F) 98001; test: agar punch method, inhibition circle; type: cell-based, Candida albicans; conditions: 6 mm hole, 55 μL of 1 mg/mL, SDA, 28°C, 16–18 h, mean ± SD, three replicates, + control given per plate group
Method: as §1, §2

S. aureus CMCC(B) 26003 [2] = test: agar punch method, inhibition circle; type: cell-based, Staphylococcus aureus; conditions: 6 mm hole, 55 μL of 1 mg/mL, NA, 37°C, 16–18 h, mean ± SD, three replicates, + control given per plate group
Method: as §1, §2

[3] = system: P. aeruginosa CMCC(B)10104; test: agar punch method, inhibition circle; type: cell-based, Pseudomonas aeruginosa; conditions: 6 mm hole, 55 μL of 1 mg/mL, NA, 37°C, 16–18 h, mean ± SD, three replicates, + control given per plate group
Method: as §1, §2

E. coli = test: agar punch method, inhibition circle; type: cell-based, Escherichia coli; conditions: 6 mm hole, 55 μL of 1 mg/mL, NA, 37°C, 16–18 h, mean ± SD, three replicates, + control given per plate group
Method: as §1, §2

S. aureus CMCC(B) 26003 [4] = type: cell-based, Staphylococcus aureus; conditions: CMCC(B) 26003
Method: as §1
The MIC values of five candidate peptides (FD4, FD10, FD12, FD14, and FD15), which were selected based on physicochemical properties and antimicrobial effects (determined by the agar punch method), were evaluated using a micro-broth dilution method ([Zhou and Zhou, 2018]). Serial two-fold dilutions of the candidate peptides were prepared in 96-well plates containing the same microbial inoculum (E. coli, P. aeruginosa CMCC(B)10104, B. thuringiensis, S. aureus CMCC(B) 26003, or C. albicans CMCC(F) 98001). The plates were incubated (bacteria: 37°C; fungi: 28°C) for 16–18 h. Ampicillin was used as the positive control. The MIC was defined as the lowest peptide concentration where no visible growth occurred ([Diao et al., 2014]). The experiment was conducted in triplicate.

**Q.** How did the “Inhibition circle diameter (mm) B. thuringiensis” value (B. thuringiensis) turn out when ANWDKVIR [FD13] was run?
**A.** 0 mm

**Q.** And the “Inhibition circle diameter (mm) C. albicans CMCC(F) 98001” value [1]?
**A.** 0 mm

**Q.** What about the “Inhibition circle diameter (mm) S. aureus CMCC(B) 26003” value (S. aureus CMCC(B) 26003 [2]) of the same sequence?
**A.** 0 mm

**Q.** And the “Inhibition circle diameter (mm) P. aeruginosa CMCC(B)10104” value [3]?
**A.** 0 mm

**Q.** And the “Inhibition circle diameter (mm) E. coli” value (E. coli)?
**A.** 0 mm

**Q.** What does the source list for AFQRTIRKFL [FD5]?
**A.** Inhibition circle diameter (mm) B. thuringiensis (B. thuringiensis): 0 mm; Inhibition circle diameter (mm) C. albicans CMCC(F) 98001 [1]: 0 mm; Inhibition circle diameter (mm) S. aureus CMCC(B) 26003 (S. aureus CMCC(B) 26003 [2]): 0 mm; Inhibition circle diameter (mm) P. aeruginosa CMCC(B)10104 [3]: 0 mm; Inhibition circle diameter (mm) E. coli (E. coli): 0 mm

**Q.** With FPVGRVHRLL [FD11] as the sequence, how does the “Inhibition circle diameter (mm) B. thuringiensis” value (B. thuringiensis) read?
**A.** 0 mm

**Q.** What about the “Inhibition circle diameter (mm) C. albicans CMCC(F) 98001” value [1] of the same sequence?
**A.** 0 mm

**Q.** What about the “Inhibition circle diameter (mm) S. aureus CMCC(B) 26003” value (S. aureus CMCC(B) 26003 [2]) of the same sequence?
**A.** 0 mm

**Q.** And the “Inhibition circle diameter (mm) P. aeruginosa CMCC(B)10104” value [3]?
**A.** 0 mm

**Q.** What about the “Inhibition circle diameter (mm) E. coli” value (E. coli) of the same sequence?
**A.** 0 mm

**Q.** IVHLLTKMTK [FD4] was tested. Which “MIC (μg/mL) S. aureus CMCC(B) 26003” value (S. aureus CMCC(B) 26003 [4]) did it give?
**A.** 256 µg/mL

**Q.** Which “Inhibition circle diameter (mm) B. thuringiensis” value (B. thuringiensis) does the source give for KLLVPRCR [FD6] here?
**A.** 0 mm

**Q.** What about the “Inhibition circle diameter (mm) C. albicans CMCC(F) 98001” value [1] of the same sequence?
**A.** 0 mm

**Q.** And the “Inhibition circle diameter (mm) S. aureus CMCC(B) 26003” value (S. aureus CMCC(B) 26003 [2])?
**A.** 0 mm

**Q.** What about the “Inhibition circle diameter (mm) P. aeruginosa CMCC(B)10104” value [3] of the same sequence?
**A.** 0 mm

**Q.** And the “Inhibition circle diameter (mm) E. coli” value (E. coli)?
**A.** 0 mm

**Q.** What does the source list for VACAKRVVR [FD1]?
**A.** Inhibition circle diameter (mm) B. thuringiensis (B. thuringiensis): 0 mm; Inhibition circle diameter (mm) C. albicans CMCC(F) 98001 [1]: 0 mm; Inhibition circle diameter (mm) S. aureus CMCC(B) 26003 (S. aureus CMCC(B) 26003 [2]): 0 mm; Inhibition circle diameter (mm) P. aeruginosa CMCC(B)10104 [3]: 0 mm; Inhibition circle diameter (mm) E. coli (E. coli): 0 mm

**Q.** What does the source list for SLARAGKVR [FD9]?
**A.** Inhibition circle diameter (mm) B. thuringiensis (B. thuringiensis): 0 mm; Inhibition circle diameter (mm) C. albicans CMCC(F) 98001 [1]: 0 mm; Inhibition circle diameter (mm) S. aureus CMCC(B) 26003 (S. aureus CMCC(B) 26003 [2]): 0 mm; Inhibition circle diameter (mm) P. aeruginosa CMCC(B)10104 [3]: 0 mm; Inhibition circle diameter (mm) E. coli (E. coli): 0 mm

**Q.** LARTLKRLGM [FD2] was tested. Which “Inhibition circle diameter (mm) B. thuringiensis” value (B. thuringiensis) did it give?
**A.** 0 mm

**Q.** What about the “Inhibition circle diameter (mm) C. albicans CMCC(F) 98001” value [1] of the same sequence?
**A.** 0 mm

**Q.** And the “Inhibition circle diameter (mm) S. aureus CMCC(B) 26003” value (S. aureus CMCC(B) 26003 [2])?
**A.** 0 mm

**Q.** And the “Inhibition circle diameter (mm) P. aeruginosa CMCC(B)10104” value [3]?
**A.** 0 mm

**Q.** And the “Inhibition circle diameter (mm) E. coli” value (E. coli)?
**A.** 0 mm

**Q.** How did the “Inhibition circle diameter (mm) B. thuringiensis” value (B. thuringiensis) turn out when LVTRAAFHGKKV [FD8] was run?
**A.** 0 mm

**Q.** And the “Inhibition circle diameter (mm) C. albicans CMCC(F) 98001” value [1]?
**A.** 0 mm

**Q.** What about the “Inhibition circle diameter (mm) S. aureus CMCC(B) 26003” value (S. aureus CMCC(B) 26003 [2]) of the same sequence?
**A.** 0 mm

**Q.** What about the “Inhibition circle diameter (mm) P. aeruginosa CMCC(B)10104” value [3] of the same sequence?
**A.** 0 mm

**Q.** And the “Inhibition circle diameter (mm) E. coli” value (E. coli)?
**A.** 0 mm

**Q.** What does the source list for IRAWVAWRNR [FD3]?
**A.** Inhibition circle diameter (mm) B. thuringiensis (B. thuringiensis): 0 mm; Inhibition circle diameter (mm) C. albicans CMCC(F) 98001 [1]: 0 mm; Inhibition circle diameter (mm) S. aureus CMCC(B) 26003 (S. aureus CMCC(B) 26003 [2]): 0 mm; Inhibition circle diameter (mm) P. aeruginosa CMCC(B)10104 [3]: 0 mm; Inhibition circle diameter (mm) E. coli (E. coli): 0 mm

**Q.** Which “Inhibition circle diameter (mm) B. thuringiensis” value (B. thuringiensis) does the source give for RIGRLVTRAAF [FD7] here?
**A.** 0 mm

**Q.** And the “Inhibition circle diameter (mm) C. albicans CMCC(F) 98001” value [1]?
**A.** 0 mm

**Q.** And the “Inhibition circle diameter (mm) S. aureus CMCC(B) 26003” value (S. aureus CMCC(B) 26003 [2])?
**A.** 0 mm

**Q.** What about the “Inhibition circle diameter (mm) P. aeruginosa CMCC(B)10104” value [3] of the same sequence?
**A.** 0 mm

**Q.** What about the “Inhibition circle diameter (mm) E. coli” value (E. coli) of the same sequence?
**A.** 0 mm

**Q.** Which results are given for STLHLVLRLR [FD16]?
**A.** Inhibition circle diameter (mm) B. thuringiensis (B. thuringiensis): 0 mm; Inhibition circle diameter (mm) C. albicans CMCC(F) 98001 [1]: 0 mm; Inhibition circle diameter (mm) S. aureus CMCC(B) 26003 (S. aureus CMCC(B) 26003 [2]): 0 mm; Inhibition circle diameter (mm) P. aeruginosa CMCC(B)10104 [3]: 0 mm; Inhibition circle diameter (mm) E. coli (E. coli): 0 mm
